Assay results: US4695552A, “Process and reagent for the determination of the hemoglobin-haptoglobin complex in the presence of free hemoglobin” (Boehringer Mannheim GmbH, priority 1983, dated 1987)

Experiments:
Type in all cases: biochemical
[1] = molecular target: T1, hemoglobin haptoglobin complex (Hb:Hp) (Homo sapiens, UniProt P68871+P69905); assay: Peroxidase reaction of hemoglobin-haptoglobin complex with perborate and ABTS as substrate, with detergent added; conditions: ABTS 0.5 mmol/l., pH 3.8
Description: (§1) 2 ml. of a reagent solution containing 0.1 mol/liter of sodium citrate buffer (pH 3.8) and 0.5 mmol/liter ABTS are mixed with 0.025 ml. of a sample solution which contains free hemoglobin or the hemoglobin-haptoglobin complex with a hemoglobin concentration of 0.25 mg. Hb/ml. The peroxidase reaction is started with 0.020 ml. of 0.58 molar sodium perborate solution in 0.15 molar citric acid and the color development is monitored by extinction measurement at 436 nm. The reaction temperature is 25° C.
(§2) Analogous measurements are carried out in which, in addition to the above-mentioned components, there are added to the reagent solution the detergents mentioned in the following Table 3 in the concentrations there also given.

free hemoglobin (Hb) [2] = molecular target: T2, free hemoglobin (Hb) (Homo sapiens, UniProt P68871+P69905); assay: Peroxidase reaction of free hemoglobin with perborate and ABTS as substrate, with detergent added; conditions: ABTS 0.5 mmol/l., pH 3.8, 0.25 mg. Hb/ml.
Description: as §1, §2

free hemoglobin (Hb) [3] = molecular target: T2, free hemoglobin (Hb); assay: Peroxidase reaction of free hemoglobin with peroxide and guaiacol as substrate, with detergent added; conditions: digitonin 0.5 mg./ml.; guaiacol 30 mmol/l.; pH 4.0; 0.25 mg. Hb/ml.
Description: (§3) 2 ml. of a reagent solution containing 0.1 mol/liter of sodium acetate buffer (pH 4.0) and 30 or 15 mmol/liter of guaiacol are mixed with 0.05 ml. of a sample solution which contains free hemoglobin or a hemoglobin-haptoglobin complex with a hemoglobin concentration of 0.25 mg. Hb/ml. The peroxidase reaction is started with 0.1 ml. of 0.58 molar sodium perborate solution in 0.15 molar citric acid and the color development is monitored by extinction measurement at 436 nm. The reaction temperature is 25° C. After a certain time, the color development comes to a stop. Because of the instability of the colored material, the extinction again decreases. The extinction changes given in the following Table 4 are the initial velocities determined by plotting the tangents on the extinction-time curves.
(§4) Analogous measurements are carried out in which, to the reagent solution, there has been added, in each case, one of the detergents given in Table 4 in the there-given concentration.

[4] = molecular target: T1, hemoglobin haptoglobin complex (Hb:Hp); assay: Peroxidase reaction of hemoglobin-haptoglobin complex with peroxide and guaiacol as substrate, with detergent added; conditions: digitonin 0.5 mg./ml.; guaiacol 30 mmol/l.; pH 4.0
Description: as §3, §4

T1 sequence (P69905 2-142 limits assumed): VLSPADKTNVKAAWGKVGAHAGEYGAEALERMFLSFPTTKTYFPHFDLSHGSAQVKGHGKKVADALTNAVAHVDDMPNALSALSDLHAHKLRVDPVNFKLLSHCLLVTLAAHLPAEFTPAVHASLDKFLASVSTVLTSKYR
T1 sequence (P68871 2-147 limits assumed): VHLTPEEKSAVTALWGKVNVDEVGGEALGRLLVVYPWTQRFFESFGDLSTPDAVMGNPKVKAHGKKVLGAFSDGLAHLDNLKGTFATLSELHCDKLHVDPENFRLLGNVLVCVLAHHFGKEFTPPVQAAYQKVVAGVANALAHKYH
T1 sequence (P00738 162-406 partner limits assumed): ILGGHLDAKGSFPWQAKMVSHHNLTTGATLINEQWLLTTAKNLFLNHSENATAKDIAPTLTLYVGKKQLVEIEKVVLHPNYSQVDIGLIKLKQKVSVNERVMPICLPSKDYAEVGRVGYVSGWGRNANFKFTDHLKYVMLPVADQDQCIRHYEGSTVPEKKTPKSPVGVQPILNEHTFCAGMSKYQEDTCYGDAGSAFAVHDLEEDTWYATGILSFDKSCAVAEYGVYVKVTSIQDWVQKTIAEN
T2 sequence (P69905 2-142 limits assumed): as the sequence (P69905 2-142 limits assumed) above
T2 sequence (P68871 2-147 limits assumed): as the sequence (P68871 2-147 limits assumed) above

## C[C@@H]1CC[C@@]2(OC1)O[C@H]1[C@@H](O)[C@H]3[C@@H]4CC[C@H]5C[C@@H](O[C@@H]6O[C@H](CO)[C@H](O[C@@H]7O[C@H](CO)[C@@H](O)[C@H](O[C@@H]8OC[C@@H](O)[C@H](O)[C@H]8O)[C@H]7O[C@@H]7O[C@H](CO)[C@H](O)[C@H](O[C@@H]8O[C@H](CO)[C@@H](O)[C@H](O)[C@H]8O)[C@H]7O)[C@H](O)[C@H]6O)[C@H](O)C[C@]5(C)[C@H]4CC[C@]3(C)[C@H]1[C@@H]2C [digitonin]
[1]; digitonin 0.15 mg./ml.
  Hb:Hp / Hb: 37.6
  ΔE/min. Hb:Hp: 818 mE/min.
[1]; digitonin 0.3 mg./ml.
  Hb:Hp / Hb: 41
  ΔE/min. Hb:Hp: 818 mE/min.
Free hemoglobin (Hb) [2]; digitonin 0.15 mg./ml.
  ΔE/min. Hb: 21.8 mE/min.
Free hemoglobin (Hb) [2]; digitonin 0.3 mg./ml.
  ΔE/min. Hb: 20 mE/min.
Free hemoglobin (Hb) [3]
  ΔE/min. Hb: 3 mE/min.
[4]
  Hb:Hp / Hb: 50
  ΔE/min. Hb:Hp: 154 mE/min.
